Legend:
Assay type in all cases: biochemical
[1] = target: T1, recombinant soluble tissue factor and recombinant human factor VIIa (TF-VIIa) (Homo sapiens, UniProt P08709); experiment: TF-VIIa Assay; conditions: chromogenic substrate, 60 min, room temperature, pH 8.0
T1 construct: purchased American Diagnostica, Greenwich Conn; host or cells: soluble TF made in house in E. coli
Description: (§1) In this assay 100 nM recombinant soluble tissue factor and 2 nM recombinant human factor VIIa are added to a 96-well assay plate containing 0.4 mM of the substrate, N-Methylsulfonyl-D-phe-gly-arg-p-nitroaniline and either inhibitor or buffer (5 mM CaCl2,50 mM Tris-HCl, pH 8.0, 100 mM NaCl, 0.1% BSA). The reaction, in a final volume of 100 ul is measured immediately at 405 nm to determine background absorbance. The plate is incubated at room temperature for 60 min, at which time the rate of hydrolysis of the substrate is measured by monitoring the reaction at 405 nm for the release of p-nitroaniline. Percent inhibition of TF-VIIa activity is calculated from OD405 nm value from the experimental and control sample.
(§2) Recombinant soluble TF, consisting of amino acids 1-219 of the mature protein sequence was expressed in E. coli and purified using a Mono Q Sepharose FPLC. Recombinant human VIIa was purchased from American Diagnostica, Greenwich Conn. and chromogenic substrate N-Methylsulfonyl-D-phe-gly-arg-p-nitroaniline was prepared by American Peptide Company, Inc., Sunnyvale, Calif. Factor Xa was obtained from Enzyme Research Laboratories, South Bend Ind., thrombin from Calbiochem, La Jolla, Calif., and trypsin and L-BAPNA from Sigma, St Louis Mo. The chromogenic substrates S-2765 and S-2238 were purchased from Chromogenix, Sweden.

[2] = target: T2, trypsin, type IX from porcine pancreas (Sus scrofa, UniProt P00761); experiment: Trypsin Assay; conditions: L-BAPNA substrate, 60 min, room temperature, pH 8.0; read-out: Trpysin II ICSO
T2 construct: purchased Sigma, St Louis Mo. type IX; host or cells: porcine pancreas
T2 sequence (P00761 9-231): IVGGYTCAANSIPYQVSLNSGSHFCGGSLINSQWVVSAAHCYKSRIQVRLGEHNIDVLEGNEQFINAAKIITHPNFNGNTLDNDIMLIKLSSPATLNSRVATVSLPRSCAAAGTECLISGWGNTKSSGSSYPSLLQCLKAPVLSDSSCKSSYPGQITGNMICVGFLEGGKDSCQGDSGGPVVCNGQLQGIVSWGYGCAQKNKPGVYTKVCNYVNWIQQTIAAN
Description: 5 ug/ml trypsin, type IX from porcine pancreas and 0.375 mM N-α-Benzoyl-L-arginine-p-nitroanilide (L-BAPNA) are added to a 96-well assay plate containing either inhibitor or buffer (50 mM Tris-HCl, pH 8.0, 100 mM NaCl, 0.1% BSA). The reactions, in a final volume of 100 ul are measured immediately at 405 nm to determine background absorbance. The plate is incubated at room temperature for 60 min, at which time the rate of hydrolysis of the substrate is measured by monitoring the reaction at 405 nm for the release of p-nitroaniline. Percent inhibition of trypsin activity is calculated from OD405 nm value from the experimental and control sample.
as §2

human factor Xa = target: T3, human factor Xa (Homo sapiens, UniProt P00742); experiment: Xa Assay; conditions: S-2765 substrate, 60 min, room temperature, pH 8.0
T3 construct: leads from XII to XIIa to XIa to IXa and to the conversion of X to Xa; purchased Enzyme Research Laboratories, South Bend Ind
T3 sequence (P00742 235-488 limits assumed): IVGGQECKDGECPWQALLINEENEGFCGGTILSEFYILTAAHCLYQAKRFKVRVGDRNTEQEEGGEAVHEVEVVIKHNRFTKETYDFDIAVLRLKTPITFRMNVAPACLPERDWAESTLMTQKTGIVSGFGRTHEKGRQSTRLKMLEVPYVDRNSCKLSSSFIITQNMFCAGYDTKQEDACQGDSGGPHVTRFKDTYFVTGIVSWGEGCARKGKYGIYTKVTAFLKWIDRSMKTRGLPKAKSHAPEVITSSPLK
T3 sequence (P00742 41-179 partner limits assumed): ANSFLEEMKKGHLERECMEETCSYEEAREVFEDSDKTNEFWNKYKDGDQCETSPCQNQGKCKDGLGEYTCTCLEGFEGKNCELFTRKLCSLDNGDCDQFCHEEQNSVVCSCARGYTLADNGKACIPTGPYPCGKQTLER
Description: as §1, with “0.3” for “In this assay 100”, “nM” for “nM recombinant soluble tissue factor and 2 nM recombinant”, “Xa and 0.15 mM N-α-Benzyloxycarbonyl-D-arginyl-L-glycyl-L-arginine-p-nitroaniline-dihydrochloride (S-2765)” for “VIIa”, “containing” for “containing 0.4 mM of the substrate, N-Methylsulfonyl-D-phe-gly-arg-p-nitroaniline and”, “(50” for “(5 mM CaCl2,50”, “Xa” for “TF-VIIa”
as §2

human thrombin = human thrombin (Homo sapiens, UniProt P00734); experiment: Thrombin Assay; conditions: chromogenic substrate, 60 min, room temperature, pH 8.0; read-out: Thrombin II IC50
Description: Percent inhibition of thrombin activity is calculated from OD405 nm value from the experimental and control sample.
Recombinant human VIIa was purchased from American Diagnostica, Greenwich Conn. and chromogenic substrate N-Methylsulfonyl-D-phe-gly-arg-p-nitroaniline was prepared by American Peptide Company, Inc., Sunnyvale, Calif. Factor Xa was obtained from Enzyme Research Laboratories, South Bend Ind., thrombin from Calbiochem, La Jolla, Calif., and trypsin and L-BAPNA from Sigma, St Louis Mo.

T1 sequence (P08709 213-466 limits assumed): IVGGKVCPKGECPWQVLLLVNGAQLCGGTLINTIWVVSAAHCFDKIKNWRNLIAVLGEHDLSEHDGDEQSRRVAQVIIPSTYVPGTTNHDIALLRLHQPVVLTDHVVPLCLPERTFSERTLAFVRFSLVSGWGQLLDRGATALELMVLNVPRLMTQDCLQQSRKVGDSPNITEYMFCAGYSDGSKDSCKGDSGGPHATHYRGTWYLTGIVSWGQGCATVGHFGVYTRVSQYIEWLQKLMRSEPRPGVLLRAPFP
T1 sequence (P08709 61-212 partner limits assumed): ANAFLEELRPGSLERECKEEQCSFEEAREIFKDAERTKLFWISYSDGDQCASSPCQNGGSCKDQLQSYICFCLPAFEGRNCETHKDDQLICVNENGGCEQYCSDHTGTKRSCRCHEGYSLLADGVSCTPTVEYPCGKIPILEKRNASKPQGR
T1 sequence (P13726 33-251 partner limits assumed): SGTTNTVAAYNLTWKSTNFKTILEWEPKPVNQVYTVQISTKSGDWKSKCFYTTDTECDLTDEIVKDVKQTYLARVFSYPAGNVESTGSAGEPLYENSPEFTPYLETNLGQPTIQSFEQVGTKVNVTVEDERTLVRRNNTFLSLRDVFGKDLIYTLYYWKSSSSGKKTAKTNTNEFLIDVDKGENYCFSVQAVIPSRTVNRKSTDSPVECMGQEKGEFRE

| Structure (SMILES) | IC50 [1] | IC50 [2] | IC50 (human factor Xa) | IC50 (human thrombin) |
| --- | --- | --- | --- | --- |
| N=C(N)NCCC[C@H](NC(=O)Cn1c(=O)c(NS(=O)(=O)Cc2ccccc2)cc2ccccc21)C(=O)c1nccs1 [Example 1] | 4.6 µM | 0.21 µM | 0.07 µM | 0.7 µM |
| N=C(N)c1ccc(CNC(=O)Cn2c(=O)c(NCCc3ccccc3)cc3ccccc32)cc1 [Example 3] | 26.1 µM | 0.86 µM | > 30 µM | 11 µM |
| N=C(N)c1ccc(CNC(=O)Cn2c(=O)c(NS(=O)(=O)c3ccccc3)cc3ccccc32)cc1 [Example 4] | > 30 µM | 0.48 µM | 23.1 µM | 22.7 µM |
| Nc1ccc(CCNC(=O)Cn2c(=O)c(NS(=O)(=O)Cc3ccccc3)cc3ccccc32)cc1 [Example 6] | > 30 µM | > 30 µM | > 30 µM | > 30 µM |
| NCCCCNC(=O)Cn1c(=O)c(NS(=O)(=O)Cc2ccccc2)cc2ccccc21 [Example 7] | > 30 µM | > 30 µM | > 30 µM | > 30 µM |
| NCCCCCNC(=O)Cn1c(=O)c(NS(=O)(=O)Cc2ccccc2)cc2ccccc21 [Example 8] | > 30 µM | > 30 µM | > 30 µM | > 30 µM |
| CN(C)CCCCCCNC(=O)Cn1c(=O)c(NS(=O)(=O)Cc2ccccc2)cc2ccccc21 [Example 9] | > 30 µM | > 30 µM | > 30 µM | > 30 µM |
| NCc1ccc(CNC(=O)Cn2c(=O)c(NS(=O)(=O)Cc3ccccc3)cc3ccccc32)cc1 [Example 10] | > 30 µM | > 30 µM | > 30 µM | > 30 µM |
| O=C(Cn1c(=O)c(NS(=O)(=O)Cc2ccccc2)cc2ccccc21)NCCCn1ccnc1 [Example 12] | > 30 µM | > 30 µM | > 30 µM | > 30 µM |
| O=C(Cn1c(=O)c(NS(=O)(=O)Cc2ccccc2)cc2ccccc21)NCCc1cnc[nH]1 [Example 13] | > 30 µM | > 30 µM | > 30 µM | > 30 µM |
| O=C(Cn1c(=O)c(NS(=O)(=O)Cc2ccccc2)cc2ccccc21)NCCc1cccnc1 [Example 14] | > 30 µM | > 30 µM | > 30 µM | > 30 µM |
| Nc1ccc(CNC(=O)Cn2c(=O)c(NS(=O)(=O)Cc3ccccc3)cc3ccccc32)cc1 [Example 16] | > 30 µM | > 30 µM | > 30 µM | > 30 µM |
| Cc1ccc(NS(=O)(=O)Cc2ccccc2)c(=O)n1CC(=O)N[C@@H](CCCNC(=N)N)C(=O)c1nccs1 [Example 18, N-[2(S)-2-[1-Oxo-1-(2-thiazolyl)]-5-[[(amino)iminomethyl]amino]pentyl]-2-[6-methyl-2-oxo-3-[[(phenylmethyl)sulfonyl]amino]-1(2H)-pyrid-1-yl]acetamide] | 0.8 µM | 0.2 µM | < 4 µM | < 0.04 µM |

The remaining lines, values ahead:

| IC50 [1] | IC50 [2] | IC50 (human factor Xa) | IC50 (human thrombin) | Structure (SMILES) |
| --- | --- | --- | --- | --- |
| 46 µM | 0.5 µM | 7.7 µM | 5.5 µM | N=C(N)c1ccc(CNC(=O)Cn2c(=O)c(NS(=O)(=O)Cc3ccccc3)cc3ccccc32)cc1 [Example 2, N-[[4-[(amino)iminomethyl]phenyl]methyll]-2-[3-benzylsulfonyl-amino-2-oxo-2H-quinolin-1-yl]acetamide] |
| > 30 µM | > 30 µM | > 30 µM | > 30 µM | NCc1cccc(CNC(=O)Cn2c(=O)c(NS(=O)(=O)Cc3ccccc3)cc3ccccc32)c1 [Example 11] |
| > 30 µM | > 30 µM | > 30 µM | > 30 µM | CN1CCC(CCCNC(=O)Cn2c(=O)c(NS(=O)(=O)Cc3ccccc3)cc3ccccc32)CC1 [Example 15] |
| 1.1 µM | 0.3 µM | 0.1 µM | 0.2 µM | N=C(N)NCCC[C@H](NC(=O)Cn1c(CCc2ccccc2)ccc(NS(=O)(=O)Cc2ccccc2)c1=O)C(=O)c1nccs1 [Example 17, N-[2(S)-2-[1-Oxo-1-(2-thiazolyl)]-5-[[(amino)iminomethyl]amino]pentyl]-2-[6-(2-phenylethyl)-2-oxo-3-[[(phenylmethyl)sulfonyl]amino]-1(2H)-pyrid-1-yl]acetamide] |
| 18 µM | < 0.1 µM | 4.1 µM | 0.4 µM | N=C(N)c1ccc(CNC(=O)Cn2c(CCc3ccccc3)ccc(NS(=O)(=O)Cc3ccccc3)c2=O)cc1 [Example 19, N-[[4-[(amino)iminomethyl]phenyl]methyl)-2-[6-(2-phenylethyl)-2-oxo-3-[[(phenylmethyl)sulfonyl]amino]-1(2H)-pyrid-1-yl]acetamide] |
| 23 µM | 0.5 µM | 5.7 µM | 0.3 µM | Cc1ccc(NS(=O)(=O)Cc2ccccc2)c(=O)n1CC(=O)NCc1ccc(C(=N)N)cc1 [Example 20, N-[(4-[[amino)iminomethyl]phenyl]methyl]-2-[6-methyl-2-oxo-3-[[(phenylmethyl)sulfonyl]amino]-1(2H)-pyrid-1-yl]acetamide] |
| > 30 µM | 0.6 µM | 17 µM | 0.5 µM | N=C(N)N1CCC(CNC(=O)Cn2c(CCc3ccccc3)ccc(NS(=O)(=O)Cc3ccccc3)c2=O)CC1 [Example 21] |
| > 30 µM | 11.1 µM | – | – | Cc1ccc(NS(=O)(=O)Cc2ccccc2)c(=O)n1CC(=O)NCC1CCN(C(=N)N)CC1 [Example 22] |
